# Biological target: Eukaryotic translation initiation factor 4H (Homo sapiens, UniProt Q15056)
# Experiment: human eIF4H binding inhibitors, primary screen, translation initiation inhibitor project, biochemical, uHTS, fluorescence polarization (AID 2012)
row,SMILES,IC50 [µM]
1,O=C1N=c2ccccc2=C1NNC(=O)c1cc(-c2cccs2)n[nH]1 [N'-(2-oxoindol-3-yl)-5-thiophen-2-yl-1H-pyrazole-3-carbohydrazide],11.5
2,CC1=NC(=O)NC(c2ccco2)C1C(=O)OC(C)C (centres undefined) [SMR000120838],34.7
3,"CC1(C)Oc2ccc3ccc(=O)oc3c2C(CN=O)=C1Cl [9-chloro-2-keto-8,8-dimethyl-pyrano[2,3-f]chromene-10-carbaldehyde oxime]",100
4,"COc1ccc(CN=Nc2nc(O)c(CC(=O)O)s2)cc1OCc1ccc(Cl)cc1Cl [[2-({3-[(2,4-dichlorobenzyl)oxy]-4-methoxybenzylidene}hydrazono)-4-oxo-1,3-thiazolidin-5-yl]acetic acid]",14.7
5,"CCn1c(=NC(=O)c2ccc(-n3c(O)ccc3O)cc2)sc2c(OC)ccc(OC)c21 [4-[2,5-bis(oxidanylidene)pyrrolidin-1-yl]-N-(3-ethyl-4,7-dimethoxy-1,3-benzothiazol-2-ylidene)benzamide]",14.7
6,O=C(O)c1ccc(N=NCc2cc3c(cc2[N+](=O)[O-])OCO3)cc1,21.8
7,"CC[N+](C)(CC)CCCC(N=O)C(O)(c1ccccc1)c1ccccc1 (centres undefined) [diethyl-(5-hydroxy-4-hydroxyimino-5,5-diphenylpentyl)-methylammonium;iodide]",100
8,COc1cc(C)cc(C(=O)O)c1C1C(=O)C(=O)c2c(O)cccc2C1=O (centres undefined) [MLS000877007],5.43
9,COc1ccc2c(c1)=C(NNC(=O)Cc1cccs1)C(=O)N=2,11
